The text below walks through data of patent US8791131B2, “Imidazo[1,5]naphthyridine compounds, their pharmaceutical use and compositions” (Pfizer Inc., priority 2008, dated 2014).

The target of one assay is mTOR (Homo sapiens (Human), UniProt P42345).
For assay [1], the system named is PI3-K (phosphorylation of AKT at serine 473) in BT20 cells. The assay can be described thus: PI3-Kα cellular assay (phospho-AKT Ser473 ELISA in BT20 cells).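 Further: lysates read by ELISA with TMB colour at 450 nm, cells given 0.5% DMSO vehicle serve as positive control and cell-free wells as negative control, duplicate wells per concentration.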 The conditions noted are these: Homo sapiens, BT-20, 1 h, read-out: S473 pAKT 10% FBS IC50 (μM).
The target in a further assay is PI3-Kα (Mus musculus (Mouse), UniProt P42337). The assay can be described thus: PI3-Kα biochemical assay (in vitro kinase assay, fluorescence polarization).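 Further: Insect-cell-expressed mouse p110/p85 complex converting PI(4,5)P2, product PI(3,4,5)P3 detected by displacing TAMRA-tagged PI(3,4,5)P3 from Grip1 PH domain, lower polarization means more product, room temperature.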 As to conditions: Ki calculated from IC50, [ATP]=30 uM, Km=25 uM.
Chain of PI3-Kα (P42337 whole entry, the tested form may be a part): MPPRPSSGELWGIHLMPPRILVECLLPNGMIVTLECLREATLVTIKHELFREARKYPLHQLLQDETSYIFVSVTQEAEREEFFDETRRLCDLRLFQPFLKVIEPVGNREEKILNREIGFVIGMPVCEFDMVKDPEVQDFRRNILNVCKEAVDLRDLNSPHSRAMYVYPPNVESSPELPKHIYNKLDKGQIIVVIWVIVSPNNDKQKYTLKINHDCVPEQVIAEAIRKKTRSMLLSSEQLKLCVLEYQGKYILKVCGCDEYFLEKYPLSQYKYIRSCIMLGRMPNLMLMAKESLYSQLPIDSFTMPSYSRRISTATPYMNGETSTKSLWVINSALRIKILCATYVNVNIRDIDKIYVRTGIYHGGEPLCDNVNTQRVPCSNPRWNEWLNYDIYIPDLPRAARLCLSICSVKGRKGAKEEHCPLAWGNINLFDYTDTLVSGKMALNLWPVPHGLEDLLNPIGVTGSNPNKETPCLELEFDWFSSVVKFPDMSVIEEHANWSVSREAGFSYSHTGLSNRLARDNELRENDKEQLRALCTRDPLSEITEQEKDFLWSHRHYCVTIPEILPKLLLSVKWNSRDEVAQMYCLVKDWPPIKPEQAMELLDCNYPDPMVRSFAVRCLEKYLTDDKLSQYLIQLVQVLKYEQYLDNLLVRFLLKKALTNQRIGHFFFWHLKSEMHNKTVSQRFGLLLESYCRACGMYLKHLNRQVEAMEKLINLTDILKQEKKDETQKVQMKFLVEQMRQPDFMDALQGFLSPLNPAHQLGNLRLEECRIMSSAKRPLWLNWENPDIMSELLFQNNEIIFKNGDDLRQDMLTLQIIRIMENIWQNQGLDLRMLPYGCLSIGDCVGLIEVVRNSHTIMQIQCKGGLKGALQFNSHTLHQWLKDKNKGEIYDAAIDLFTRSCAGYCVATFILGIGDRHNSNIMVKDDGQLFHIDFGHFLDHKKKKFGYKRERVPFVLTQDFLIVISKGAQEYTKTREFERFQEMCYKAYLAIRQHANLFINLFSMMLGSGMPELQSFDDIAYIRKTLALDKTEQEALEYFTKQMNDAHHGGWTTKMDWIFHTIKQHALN
Chain of PI3-Kα (P26450 whole entry partner, the tested form may be a part): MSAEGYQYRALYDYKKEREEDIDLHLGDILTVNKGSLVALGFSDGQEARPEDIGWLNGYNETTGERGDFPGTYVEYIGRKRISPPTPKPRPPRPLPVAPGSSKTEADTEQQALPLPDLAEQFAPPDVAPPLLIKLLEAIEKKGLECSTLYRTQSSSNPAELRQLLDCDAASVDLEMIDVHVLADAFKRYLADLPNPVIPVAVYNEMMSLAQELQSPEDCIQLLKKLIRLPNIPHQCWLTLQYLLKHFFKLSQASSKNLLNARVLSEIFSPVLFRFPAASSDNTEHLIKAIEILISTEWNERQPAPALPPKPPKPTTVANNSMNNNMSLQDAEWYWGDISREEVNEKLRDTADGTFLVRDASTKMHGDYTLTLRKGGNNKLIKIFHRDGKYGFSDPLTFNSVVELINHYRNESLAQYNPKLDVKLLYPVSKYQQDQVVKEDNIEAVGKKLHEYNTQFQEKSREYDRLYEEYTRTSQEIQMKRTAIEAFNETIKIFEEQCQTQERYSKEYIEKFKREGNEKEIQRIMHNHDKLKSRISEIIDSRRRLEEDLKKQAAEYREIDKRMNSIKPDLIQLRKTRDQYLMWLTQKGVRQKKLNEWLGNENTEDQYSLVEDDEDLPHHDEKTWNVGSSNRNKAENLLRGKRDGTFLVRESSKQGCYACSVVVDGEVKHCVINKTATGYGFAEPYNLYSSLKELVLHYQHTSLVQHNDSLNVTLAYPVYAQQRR

pKi: −log10 of the molar value.

Chain of mTOR (P42345 2156-2469): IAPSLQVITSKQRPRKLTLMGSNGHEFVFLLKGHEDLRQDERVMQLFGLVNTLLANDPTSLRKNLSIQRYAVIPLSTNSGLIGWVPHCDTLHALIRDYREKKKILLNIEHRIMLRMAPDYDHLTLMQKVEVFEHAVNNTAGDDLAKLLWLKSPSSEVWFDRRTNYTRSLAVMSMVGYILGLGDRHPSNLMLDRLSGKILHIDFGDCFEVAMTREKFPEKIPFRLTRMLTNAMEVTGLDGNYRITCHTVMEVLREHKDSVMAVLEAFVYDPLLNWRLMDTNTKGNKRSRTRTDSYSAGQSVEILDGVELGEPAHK

For `COCCN1CCC(n2c(=O)n(C)c3cnc4ccc(-c5ccc(N(C)C)nc5)nc4c32)CC1` [Compound 206, 8-[6-(dimethylamino)pyridin-3-yl]-1-[1-(2-methoxyethyl)piperidin-4-yl]-3-methyl-1,3-dihydro-2H-imidazo[4,5-c][1,5]naphthyridin-2-one], the negative logarithm of the Ki (pKi) on mTOR was 8.09. In addition, in assay [1], the IC50 worked out at 0.0318 µM. On PI3-Kα, the “PI3Ka Ki” value was 0.000802 µM.

On mTOR, `Cn1c(=O)n(C2CCOCC2)c2c3nc(-c4cnn(CCO)c4)ccc3ncc21` [Compound 208, 8-[1-(2-hydroxyethyl)-1H-pyrazol-4-yl]-3-methyl-1-(tetrahydro-2H-pyran-4-yl)-1,3-dihydro-2H-imidazo[4,5-c][1,5]naphthyridin-2-one] had a negative-log Ki (pKi) of 7.35. Further, in assay [1], the IC50 is 0.579 µM. For the same compound, on PI3-Kα, the “PI3Ka Ki” value was 0.0244 µM.

As to `Cn1cc(-c2ccc3ncc4c(c3n2)n(C2CCN(CC(N)=O)CC2)c(=O)n4C)cn1` [Compound 211, 2-{4-[3-methyl-8-(1-methyl-1H-pyrazol-4-yl)-2-oxo-2,3-dihydro-1H-imidazo[4,5-c][1,5]naphthyridin-1-yl]piperidin-1-yl}acetamide], the pKi on mTOR was 8.12. Moreover, in assay [1], the IC50 is 0.232 µM. Moreover, the “PI3Ka Ki” value on PI3-Kα is 0.00463 µM.

Turning to `CC(=O)N1CCC(n2c(=O)n(C)c3cnc4ccc(-c5cnn(C)c5)nc4c32)CC1` [Compound 213, 1-(1-acetylpiperidin-4-yl)-3-methyl-8-(1-methyl-1H-pyrazol-4-yl)-1,3-dihydro-2H-imidazo[4,5-c][1,5]naphthyridin-2-one], the pKi on mTOR is 8.11. Moreover, in assay [1], the IC50 is 0.133 µM. Moreover, the “PI3Ka Ki” value on PI3-Kα was 0.00409 µM.

On mTOR, `C[C@@H](O)C(=O)N1CCC(n2c(=O)n(C)c3cnc4ccc(-c5ccc(N(C)C)nc5)nc4c32)CC1` [Compound 214, 8-[6-(dimethylamino)pyridin-3-yl]-1-{1-[(2R)-2-hydroxypropanoyl]piperidin-4-yl}-3-methyl-1,3-dihydro-2H-imidazo[4,5-c][1,5]naphthyridin-2-one] had a pKi of 8.76. Besides, the IC50 in assay [1] worked out at 0.00553 µM. The “PI3Ka Ki” value at PI3-Kα is 0.000397 µM.

As to `Cn1cc(-c2ccc3ncc4c(c3n2)n(C2CCN(C(=O)C(C)(C)O)CC2)c(=O)n4C)cn1` [Compound 215, 1-[1-(2-hydroxy-2-methylpropanoyl)piperidin-4-yl]-3-methyl-8-(1-methyl-1H-pyrazol-4-yl)-1,3-dihydro-2H-imidazo[4,5-c][1,5]naphthyridin-2-one], the pKi on mTOR was 7.66. Also, the half-inhibitory concentration (IC50) in assay [1] is 0.0304 µM. In addition, on PI3-Kα, the “PI3Ka Ki” value is 0.00467 µM.

On to `CN(C)c1ccc(-c2ccc3ncc4c(c3n2)n(C2CCN(C(=O)CO)CC2)c(=O)n4C)cn1` [Compound 216, 8-[6-(dimethylamino)pyridin-3-yl]-1-(1-glycoloylpiperidin-4-yl)-3-methyl-1,3-dihydro-2H-imidazo[4,5-c][1,5]naphthyridin-2-one], for which the pKi on mTOR is 8.64. Besides, in assay [1], the 50% inhibitory concentration (IC50) was found to be 0.00623 µM. The “PI3Ka Ki” value at PI3-Kα was 0.000505 µM.

In the case of `Cn1c(=O)n(C2CCNCC2)c2c3nc(-c4cnn(CCO)c4)ccc3ncc21` [Compound 226, 8-[1-(2-hydroxyethyl)-1H-pyrazol-4-yl]-3-methyl-1-piperidin-4-yl-1,3-dihydro-2H-imidazo[4,5-c][1,5]naphthyridin-2-one], at mTOR, the negative logarithm of the Ki (pKi) was 6.98. Moreover, in assay [1], the IC50 is 3.21 µM. On PI3-Kα, the “PI3Ka Ki” value is 0.0521 µM.

On mTOR, `Cn1c(=O)n(C2CCNCC2)c2c3nc(-c4cnc(N)nc4)ccc3ncc21` [Compound 227, 8-(2-aminopyrimidin-5-yl)-3-methyl-1-piperidin-4-yl-1,3-dihydro-2H-imidazo[4,5-c][1,5]naphthyridin-2-one] showed a pKi of 8.44. The IC50 in assay [1] was 0.137 µM. In addition, the “PI3Ka Ki” value on PI3-Kα was 0.00161 µM.

For `Cn1c(=O)n([C@H]2CC[C@H](O)CC2)c2c3nc(-c4cnc(N)nc4)ccc3ncc21` [Compound 229, 8-(2-aminopyrimidin-5-yl)-1-(trans-4-hydroxycyclohexyl)-3-methyl-1,3-dihydro-2H-imidazo[4,5-c][1,5]naphthyridin-2-one], on mTOR, the pKi was 9.48. In assay [1], the IC50 is 0.00336 µM. For the same compound, the “PI3Ka Ki” value at PI3-Kα is 0.000273 µM.

For `Cc1ccc(-c2ccc3ncc4c(c3n2)n([C@H](C)CO)c(=O)n4C)cn1` [Compound 231, 1-[(1R)-2-hydroxy-1-methylethyl]-3-methyl-8-(6-methylpyridin-3-yl)-1,3-dihydro-2H-imidazo[4,5-c][1,5]naphthyridin-2-one], the pKi on mTOR was 7.25. In addition, the IC50 in assay [1] stood at 0.269 µM. Further, on PI3-Kα, the “PI3Ka Ki” value was 0.0134 µM.

At mTOR, `COc1ccc(-c2ccc3ncc4c(c3n2)n([C@H](C)CO)c(=O)n4C)cn1` [Compound 233, 1-[(1R)-2-hydroxy-1-methylethyl]-8-(6-methoxypyridin-3-yl)-3-methyl-1,3-dihydro-2H-imidazo[4,5-c][1,5]naphthyridin-2-one] showed a pKi of 7.62. Besides, the IC50 in assay [1] worked out at 0.237 µM. Moreover, on PI3-Kα, the “PI3Ka Ki” value was 0.00894 µM.

`C[C@H](CO)n1c(=O)n(C)c2cnc3ccc(-c4cnc(N)nc4)nc3c21` [Compound 235, 8-(2-aminopyrimidin-5-yl)-1-[(1R)-2-hydroxy-1-methylethyl]-3-methyl-1,3-dihydro-2H-imidazo[4,5-c][1,5]naphthyridin-2-one] showed a pKi at mTOR of 8.16. Further, in assay [1], the IC50 was 0.331 µM. The “PI3Ka Ki” value on PI3-Kα is 0.0155 µM.

In the case of `C[C@H](CO)n1c(=O)n(C)c2cnc3ccc(-c4cccc5[nH]ccc45)nc3c21` [Compound 237, 1-[(1R)-2-hydroxy-1-methylethyl]-8-(1H-indo1-4-yl)-3-methyl-1,3-dihydro-2H-imidazo[4,5-c][1,5]naphthyridin-2-one], the pKi on mTOR is 8.18. Besides, in assay [1], the IC50 worked out at 0.0553 µM. Moreover, at PI3-Kα, the “PI3Ka Ki” value is 0.0296 µM.

For the compound `C[C@H](CO)n1c(=O)n(C)c2cnc3ccc(-c4cnc5[nH]ncc5c4)nc3c21` [Compound 238, 1-[(1R)-2-hydroxy-1-methylethyl]-3-methyl-8-(1H-pyrazolo[3,4-b]pyridin-5-yl)-1,3-dihydro-2H-imidazo[4,5-c][1,5]naphthyridin-2-one], at mTOR, the pKi is 8.35. The IC50 in assay [1] turned out to be 0.0838 µM. Moreover, the “PI3Ka Ki” value on PI3-Kα is 0.000438 µM.

Turning to `C[C@@H](CO)n1c(=O)n(C)c2cnc3ccc(-c4cnn(C)c4)nc3c21` [Compound 239, 1-[(1S)-2-hydroxy-1-methylethyl]-3-methyl-8-(1-methyl-1H-pyrazol-4-yl)-1,3-dihydro-2H-imidazo[4,5-c][1,5]naphthyridin-2-one], the pKi at mTOR is 6.51. In assay [1], the IC50 is 5.04 µM. Further, the “PI3Ka Ki” value on PI3-Kα was 0.102 µM.

At mTOR, `COc1ccc(-c2ccc3ncc4c(c3n2)n([C@@H](C)CO)c(=O)n4C)cn1` [Compound 241, 1-[(1S)-2-hydroxy-1-methylethyl]-8-(6-methoxypyridin-3-yl)-3-methyl-1,3-dihydro-2H-imidazo[4,5-c][1,5]naphthyridin-2-one] had a pKi of 7.54. Moreover, the IC50 in assay [1] worked out at 0.266 µM. For the same compound, the “PI3Ka Ki” value at PI3-Kα was 0.00408 µM.

For the compound `CC(=O)N1CCC(n2c(=O)n(C)c3cnc4ccc(-c5ccc(N)nc5)nc4c32)CC1` [Compound 242, 1-(1-acetylpiperidin-4-yl)-8-(6-aminopyridin-3-yl)-3-methyl-1,3-dihydro-2H-imidazo[4,5-c][1,5]naphthyridin-2-one], the negative logarithm of the Ki (pKi) on mTOR is 9.52. Moreover, the IC50 in assay [1] was 0.00917 µM. For the same compound, the “PI3Ka Ki” value on PI3-Kα is 0.000252 µM.

Turning to `CC(=O)N1CCC(n2c(=O)n(C)c3cnc4ccc(-c5ccc(S(C)(=O)=O)cc5)nc4c32)CC1` [Compound 246, 1-(1-acetylpiperidin-4-yl)-3-methyl-8-[4-(methylsulfonyl)phenyl]-1,3-dihydro-2H-imidazo[4,5-c][1,5]naphthyridin-2-one], the negative logarithm of the Ki (pKi) on mTOR is 7.45. In addition, in assay [1], the IC50 stood at 2.58 µM. On PI3-Kα, the “PI3Ka Ki” value is 0.0242 µM.

As to `CC(=O)N1CCC(n2c(=O)n(C)c3cnc4ccc(-c5ccnc6[nH]ncc56)nc4c32)CC1` [Compound 251, 1-(1-acetylpiperidin-4-yl)-3-methyl-8-(1H-pyrazolo[3,4-b]pyridin-4-yl)-1,3-dihydro-2H-imidazo[4,5-c][1,5]naphthyridin-2-one], the negative logarithm of the Ki (pKi) on mTOR is 8.33. Besides, the IC50 in assay [1] was found to be 0.14 µM. Further, the “PI3Ka Ki” value at PI3-Kα was 0.000811 µM.

At mTOR, `C[C@H](O)C(=O)N1CCC(n2c(=O)n(C)c3cnc4ccc(-c5ccnc6[nH]ncc56)nc4c32)CC1` [Compound 253, 1-{1-[(2S)-2-hydroxypropanoyl]piperidin-4-yl}-3-methyl-8-(1H-pyrazolo[3,4-b]pyridin-4-yl)-1,3-dihydro-2H-imidazo[4,5-c][1,5]naphthyridin-2-one] showed a pKi of 8.77. Besides, the 50% inhibitory concentration (IC50) in assay [1] worked out at 0.218 µM. For the same compound, the “PI3Ka Ki” value on PI3-Kα is 0.00104 µM.

At mTOR, `Cn1c(=O)n(C2CCN(C(=O)CO)CC2)c2c3nc(-c4cccc5[nH]ncc45)ccc3ncc21` [Compound 256, 1-(1-glycoloylpiperidin-4-yl)-8-(1H-indazol-4-yl)-3-methyl-1,3-dihydro-2H-imidazo[4,5-c][1,5]naphthyridin-2-one] had a pKi of 8.71. Further, in assay [1], the IC50 was found to be 0.0604 µM. For the same compound, the “PI3Ka Ki” value on PI3-Kα is 0.000575 µM.

For `C[C@@H](O)C(=O)N1CCC(n2c(=O)n(C)c3cnc4ccc(-c5cnc6[nH]ncc6c5)nc4c32)CC1` [Compound 258, 1-{1-[(2R)-2-hydroxypropanoyl]piperidin-4-yl}-3-methyl-8-(1H-pyrazolo[3,4-b]pyridin-5-yl)-1,3-dihydro-2H-imidazo[4,5-c][1,5]naphthyridin-2-one], the pKi on mTOR was 9.62. Also, the IC50 in assay [1] was determined as 0.0294 µM. The “PI3Ka Ki” value on PI3-Kα was 0.00011 µM.
